Test results taken from patent US8586542B2, “Small molecule apoptosis promoters” (Joyant Pharmaceuticals, Inc., priority 2006, dated 2013).

What was measured:
Wap-ras tumors = experiment: In vivo therapy in the WAP-RAS transgenic model; set-up: species or system mice; conditions: mimetic 20 mpk po; Paclitaxel 5 mpk ip
Protocol: Mimetic and Paclitaxel combination efficacy is also evaluated in the Wap-ras transgenic model.
Mimetics (20 mpk/dosing po) are dissolved in 20% hydroxyl-propyl-betacyclodexatrin (Vehicle I). 0.2 ml of mimetic solution is the oral dosing volume. Paclitaxel (5 mpk/dosing ip) is dissolved in a diluted ethanol/cremophor EL solution (vehicle II) and the i.p. dosing volume for paclitaxel is 0.1 ml.
The mice are weighed, randomized, and ear-marked on Day 0. Mimetic treatment and Vehicle I treatment is begun on Day 1 and continued every 12 hours until Day 21. Paclitaxel and Vehicle II treatments are started on Day 4 and continued daily on Day 5, 6, and 7.

[1] = molecular target: T1, truncated XIAP containing only BIR1, BIR2, and BIR3 domains (Homo sapiens, UniProt P98170); experiment: Fluorescent polarization assay (Bir binding); conditions: competition with 2 nM fluorescein labeled AVPI peptide, room temperature, 1 hour
T1 construct: truncated XIAP containing only BIR1, BIR2, and BIR3 domains
Protocol: Increasing concentrations of Smac compounds are incubated with 2 nM of labeled peptide (fluorescein labeled 10 mer peptide with AVPI 4 amino acids at its N terminus-Alexa Fluor 488) and truncated XIAP containing only BIR1, BIR2, and BIR3 domains at room temperature for 1 hour. Fluorescence reading, indicative of the bound portion of the labeled peptide, is measured in milipolarization units (mP). The more compound added, less fluorescein labeled peptide bind to the protein due to the competitive binding and less fluorescence signal is released.
Based on this principle, we obtain the Ki value that evaluates compound's binding affinity.

HCC461 cells = experiment: Cell viability assay in HCC461 cells (WST-1); type: cell-based; conditions: HCC461; 48 hrs incubation, WST-1 viability; read-out: HCC461 cell
Protocol: HCC461 cells plated in 96 well plates at 5×10^4/ml cell density are treated with 50× synthetic Smac mimetic compounds (final concentration range between 30 uM and 0.001 uM). After 48 hrs incubation at 37° C. and 5% CO2, viability of the cells are measured using Cell Proliferation Reagent WST-1 assay kit (Roche Cat #11 644 807 001).
The tetrazolium salts are cleaved to formazan by cellular enzymes. An expansion in the number of viable cells results in an increase in the overall activity of mitochondrial dehydrogenases in the samples. This augmentation in the enzyme activity leads to an increase in the amount of formazan dye formed, which directly correlates to the number of metabolically active cells in the culture. Quantification of the formazan dye produced by metabolically active cells by using a microplate (ELISA) reader at 420-480 nm.

Caspase3 in Hela S100 = experiment: In-vitro caspase-3 activation assay in Hela S100 extract; type: biochemical; conditions: 100 nM compound, Hela S100, 1 mM dATP; slope versus control (compound 1 = Caspase std.)
Protocol: Caspase3 in most cell extracts can be activated by the addition of 1 mM dATP through the mitochondria caspase pathway. […] Taking advantage of this feature, we use 100 nM of synthetic Smac mimetic compound to test its ability to eliminate IAPB in the Hela S100 and fully induce Caspase3 activity. The In Vitro Caspase3 assay is carried out at 30° C., incubating 100 nM compounds with 30 ug of Hela S100, 1 mM dATP, 10 uM Caspase3 fluorogenic substrate (Caspase3 Substrate II, Fluorogenic, #235425 from Calbiochem). The readout is caspase-3 activity represented by relative fluorogenic unit, which is recorded kinetically. The slope in linear region of the curve for each compound is calculated.
The ratio of each synthetic compound's slope versus the slope of control reflects in vitro caspase-3 activation ability of compounds.

T1 sequence (P98170 1-356 limits assumed): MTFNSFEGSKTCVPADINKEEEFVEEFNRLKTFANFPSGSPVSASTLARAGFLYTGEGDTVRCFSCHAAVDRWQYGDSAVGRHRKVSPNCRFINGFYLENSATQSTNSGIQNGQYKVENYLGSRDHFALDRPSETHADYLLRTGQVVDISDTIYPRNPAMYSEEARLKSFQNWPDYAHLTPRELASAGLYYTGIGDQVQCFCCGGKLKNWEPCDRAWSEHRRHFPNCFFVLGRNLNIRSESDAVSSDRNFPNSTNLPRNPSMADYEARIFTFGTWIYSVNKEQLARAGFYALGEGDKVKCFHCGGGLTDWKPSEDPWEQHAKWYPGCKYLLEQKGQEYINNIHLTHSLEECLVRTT

Structure (SMILES)	Bir binding [1]	IC50 (HCC461 cells)	Caspase % (Caspase3 in Hela S100)	tumor response to treatment, single agent (Wap-ras tumors)
CC(=O)O[C@H]1C(=O)[C@@]2(C)[C@H]([C@H](OC(=O)c3ccccc3)[C@]3(O)C[C@H](OC(=O)[C@H](O)[C@@H](NC(=O)c4ccccc4)c4ccccc4)C(C)=C1C3(C)C)[C@]1(OC(C)=O)CO[C@@H]1C[C@@H]2O [Paclitaxel]				do not respond
CN[C@@H](C)C(=O)N[C@@H](CCCCCC[C@H](NC(=O)[C@H](C)NC)C(=O)N1CCC[C@H]1C(=O)NC(C)c1ccccc1)C(=O)N1CCC[C@H]1C(=O)NC(C)c1ccccc1 (stereo partly shown) [Compound 8]	0.27 µM	0.07 µM	93%	
CC[C@H](NC)C(=O)N[C@@H](CC#CC#CC[C@H](NC(=O)[C@H](C)NC)C(=O)N1CCC[C@H]1C(=O)N[C@@H]1CCCc2ccccc21)C(=O)N1CCC[C@H]1C(=O)N[C@@H]1CCCc2ccccc21.Cl.Cl [Compound 16]	0.22 µM	0.025 µM	107%	
CN[C@@H](C)C(=O)N[C@@H](CC#CC#CCO[C@H](C)[C@H](NC(=O)[C@H](C)NC)C(=O)N1CCCC1C(=O)N[C@@H]1CCCc2ccccc21)C(=O)N1CCCC1C(=O)N[C@@H]1CCCc2ccccc21.Cl.Cl (stereo partly shown) [Compound 13]	0.188 µM	0.07 µM	105%	
CN[C@@H](C)C(=O)N[C@H](C(=O)N1CCC[C@H]1C(=O)N[C@@H]1CCCc2ccccc21)[C@@H](C)OCc1nnn2c1-c1c(CO[C@H](C)[C@H](NC(=O)[C@H](C)NC)C(=O)N3CCC[C@H]3C(=O)N[C@@H]3CCCc4ccccc43)nnn1CCC2.Cl.Cl [Compound 19]	0.14 µM	0.24 µM	98%	
CN[C@@H](C)C(=O)N[C@@H](CC#CC#CC[C@H](NC(=O)[C@H](C)NC)C(=O)N1CCC[C@H]1C(=O)NC(C)c1ccccc1)C(=O)N1CCC[C@H]1C(=O)NC(C)c1ccccc1 (stereo partly shown) [Compound 7]	0.144 µM	0.373 µM	101%	
CN[C@@H](C)C(=O)N[C@@H](CC#Cc1ccc([C@H](NC(=O)[C@H](C)NC)C(=O)N2CCC[C@H]2C(=O)N[C@@H]2CCCc3ccccc32)cc1)C(=O)N1CCC[C@H]1C(=O)N[C@@H]1CCCc2ccccc21.Cl.Cl [Compound 26]	0.235 µM	0.1 µM	106%	
CN[C@@H](C)C(=O)N[C@H](C(=O)N1CCC[C@H]1C(=O)N[C@@H]1CCCc2ccccc21)[C@@H](C)OCC#CC=CCO[C@H](C)[C@H](NC(=O)[C@H](C)NC)C(=O)N1CCC[C@H]1C(=O)N[C@@H]1CCCc2ccccc21.Cl.Cl [Compound 11]	0.172 µM	0.012 µM	94%	
CN[C@@H](C)C(=O)N[C@@H](Cc1nnn2c1-c1c(C[C@H](NC(=O)[C@H](C)NC)C(=O)N3CCC[C@H]3C(=O)N[C@@H]3CCCc4ccccc43)nnn1CC2)C(=O)N1CCCC1C(=O)N[C@@H]1CCCc2ccccc21.Cl.Cl (stereo partly shown) [Compound 21]	1.13 µM	2.2 µM	70%	

Continued, in another order:

Bir binding [1]	IC50 (HCC461 cells)	Caspase % (Caspase3 in Hela S100)	Structure (SMILES)	tumor response to treatment, single agent (Wap-ras tumors)
0.2 µM	0.02 µM	97%	CN[C@@H](C)C(=O)N[C@@H](CCCCNC(=O)CC(=O)NCCCC[C@H](NC(=O)[C@H](C)NC)C(=O)N1CCC[C@H]1C(=O)N[C@@H]1CCCc2ccccc21)C(=O)N1CCC[C@H]1C(=O)N[C@@H]1CCCc2ccccc21.Cl.Cl [Compound 50]	
0.18 µM	0.16 µM	102%	CC[C@H](NC)C(=O)N[C@H](C(=O)N1CCC[C@H]1C(=O)N[C@@H]1CCCc2ccccc21)c1ccc(C#CCO[C@H](C)[C@H](NC(=O)[C@H](C)NC)C(=O)N2CCC[C@H]2C(=O)N[C@@H]2CCCc3ccccc32)cc1.Cl.Cl [Compound 39]	
0.3 µM	0.02 µM	99%	CN[C@@H](C)C(=O)N[C@@H](CCCc1ccc(C[C@H](NC(=O)[C@H](C)NC)C(=O)N2CCC[C@H]2C(=O)N[C@@H]2CCCc3ccccc32)cc1)C(=O)N1CCC[C@H]1C(=O)N[C@@H]1CCCc2ccccc21.Cl.Cl [Compound 41]	
0.15 µM	0.002 µM	136%	CN[C@@H](C)C(=O)N[C@@H](Cc1ccc(OCCCCOc2ccc(C[C@H](NC(=O)[C@H](C)NC)C(=O)N3CCCC3C(=O)N[C@@H]3CCCc4ccccc43)cc2)cc1)C(=O)N1CCCC1C(=O)N[C@@H]1CCCc2ccccc21.Cl.Cl (stereo partly shown) [Compound 45]	
0.19 µM	0.02 µM	99%	CN[C@@H](C)C(=O)N[C@@H](CCCCNC(=O)c1cccc(C(=O)NCCCC[C@H](NC(=O)[C@H](C)NC)C(=O)N2CCC[C@H]2C(=O)N[C@@H]2CCCc3ccccc32)c1)C(=O)N1CCC[C@H]1C(=O)N[C@@H]1CCCc2ccccc21.Cl.Cl [Compound 47]	
